Data on five compounds can be found in patent publication US20160213742A1, “COMPOSITIONS AND METHODS FOR THE TREATMENT OF FUNGAL INFECTIONS” (priority 2013, published 2016).

The structures appear in SMILES notation. In brackets after ≈: the same amount, converted by molar mass.

Common to all, as to format: cell-based
One assay relates to A. fumigatus MYA-4609. In words: MEC assay (Example 31). The note with it: RPMI pH 7.0, 35° C., 24-48 hr. As for the experimental part:
(§1) The test organisms consisted of strains from the Micromyx collection. Reference isolates were originally received from the American Type Culture Collection (ATCC; Manassas, Va.). Organisms received at Micromyx were initially streaked for isolation on Sabouraud dextrose or potato dextrose agar. Colonies were picked by swab from the medium and resuspended in the appropriate broth containing cryoprotectant. The suspensions were aliquoted into cryogenic vials and maintained at −80° C. Prior to testing, Candida isolates were streaked from the frozen vials on Sabouraud dextrose agar. The yeast isolates were incubated at overnight at 35° C. before use. The fungal isolates were incubated at least 7 days on Sabouraud dextrose agar slants at 35° C. before harvesting.
(§2) Isolates were tested in RPMI medium (Catalog No. SH30011.04; Lot No. AWA92121B; HyClone Labs, Logan, Utah) which was prepared according to CLSI guidelines. The pH of the medium was adjusted to 7.0 with 1 N NaOH. The medium was sterile filtered using a 0.2 μm PES filter and stored at 4° C. until used.
(§3) The MIC assay method employed automated liquid handlers to conduct serial dilutions and liquid transfers. Automated liquid handlers included the Multidrop 384 (Labsystems, Helsinki, Finland), Biomek 2000 and Biomek FX (Beckman Coulter, Fullerton Calif.). The wells in columns 2-12 in standard 96-well microdilution plates (Costar 3795) were filled with 150 μl of the correct diluent (50% DMSO for investigational compounds, 100% DMSO for comparator compounds). These would become the mother plates' from which ‘daughter’ or test plates would be prepared. Stocks were diluted to 40× the desired top concentration in the test plates in the indicated solvent, and 300 μL of the 40× stock was dispensed into the appropriate well in Column 1 of the mother plates. The Biomek 2000 was used to make serial serial 2-fold dilutions through Column 11 in the “mother plate”. The wells of Column 12 contained no drug and served as the organism growth control wells.
(§4) The daughter plates were loaded with 185 μL per well of RPMI described above using the Multidrop 384. The daughter plates were prepared using the Biomek FX which transferred 5 μL of drug solution from each well of a mother plate to the corresponding well of the daughter plate in a single step.
(§5) A standardized inoculum of each organism was prepared. For Candida, colonies were picked from the streak plate and a suspension was prepared in RPMI medium equal to a 0.5 McFarland standard, then diluted 1:100 in RPMI and transferred to compartments of sterile reservoirs divided by length (Beckman Coulter). For the Aspergillus isolates, previously prepared and quantitated suspensions were used to make dilutions in RPMI to reach 20× the final concentration. These dilutions were also transferred to compartments of sterile reservoirs divided by length (Beckman Coulter). The final concentration of the Aspergillus isolates was approximately 0.2-2.5×10^4 CFU/mL.
(§6) The Biomek 2000 was used to inoculate the plates. Daughter plates were placed on the Biomek 2000 work surface reversed so that inoculation took place from low to high drug concentration. The Biomek 2000 delivered 10 μL of standardized inoculum into each well. Thus, the wells of the daughter plates ultimately contained 185 μL of RPMI, 5 μL of drug solution, and 10 μL of inoculum. The final concentration of DMSO in the test well was 2.5% for the evaluated comparators and 1.25% for the investigational agents.
(§7) Plates were stacked 3 high, covered with a lid on the top plate, placed into plastic bags, and incubated at 35° C. for approximately 24-48 hr prior to reading. Plates were read when inoculum was confluent in growth wells. Plates were viewed from the bottom using a plate viewer. […] MICs were read where visible growth of the organism was inhibited. MECs were read where the growth shifted to a small, rounded, compact hyphal form as compared to the hyphal growth seen in the growth control well.

Another assay has as its system A. flavus MX 5948. In words: MEC assay (Example 31). The settings on record: RPMI pH 7.0, 35° C., 24-48 hr. Here is the method: as §1, §2, §3, §4, §5, §6, §7
The subject of a further assay is A. fumigatus MX 5944. In words: MEC assay (Example 31). The note with it: RPMI pH 7.0, 35° C., 24-48 hr. Here is the method:
as §1, §2, §3, §4, §5, §6, §7

The test system of a further assay is A. fumigatus MYA-3626. In words: MEC assay (Example 31). The settings on record: RPMI pH 7.0, 35° C., 24-48 hr. Here is the method:
as §1, §2, §3, §4, §5, §6, §7

For the next assay, the system named is A. fumigatus ATCC 13073. Briefly: MEC assay (Example 31). The settings on record: RPMI pH 7.0, 35° C., 24-48 hr. As for the experimental part: as §1, §2, §3, §4, §5, §6, §7
Assay [1] deals with Neutrophils purified from human peripheral blood. Briefly: Human Neutrophil Transwell Migration Assay. The note with it: 37° C., 45 minutes, % of the maximum migration possible. From the text: Neutrophils were purified from human peripheral blood utilizing PolymorphPrep. Red blood cells were lysed with a lysis buffer and the cells were washed, counted and resuspended in assay buffer. Neutrophils (approximately 50,000 to 100,000 in number) were placed over 5-micon pore sized transwell plates in 24-well format with test compounds in the bottom chamber of each well. A negative control of media alone in the bottom chamber was set up in triplicate. A positive control where the neutrophils were added directly to the bottom well was set up in triplicate.
The plates were incubated at 37° C. for 45 minutes to allow for migration. After this time, migration was confirmed visually and then an aliquot (⅙^th of total cells) from each well was taken for ATP detection via luminescence with ATPlite (PerkinElmer) to quantify the number of migrated cells. The averaged reading for random migration detected in the negative control was subtracted from all readings to obtain the corrected migration number. These numbers were then divided by the averaged reading from the positive control to get the % Neutrophil Migration of the maximum migration possible.

The next assay has as its system C. krusei ATCC 14243. Briefly: microbe, parasite or virus in culture. The settings on record: ATCC 14243, pH 7. Here is the method:
as §1, §2, §3, §4, §5, §6, §7

The subject of another assay is C. glabrata ATCC 90030. Briefly: microbe, parasite or virus in culture. The note with it: ATCC 90030, pH 7. Here is the method:
as §1, §2, §3, §4, §5, §6, §7

The test system of assay [2] is C. parapsilosis ATCC 22019. In words: microbe, parasite or virus in culture. The note with it: ATCC 22019, pH 7. As for the experimental part: as §1, §2, §3, §4, §5, §6, §7
The subject of a further assay is C. albicans ATCC 90028. In words: microbe, parasite or virus in culture. The note with it: ATCC 90028, pH 7. Here is the method: as §1, §2, §3, §4, §5, §6, §7

`CC[C@H](C)C[C@H](C)CCCCCCCCC(=O)N[C@H]1C[C@@H](O)[C@@H](NCCNC(=O)CCNC(=O)[C@H](Cc2ccccc2)NC(=O)[C@H](CC(C)C)NC(=O)[C@H](CCSC)NC=O)NC(=O)[C@@H]2[C@@H](O)CCN2C(=O)[C@H]([C@H](O)CCN)NC(=O)[C@H]([C@H](O)[C@@H](O)c2ccc(O)cc2)NC(=O)[C@@H]2C[C@@H](O)CN2C(=O)[C@H]([C@@H](C)O)NC1=O` [Compound 4]: the MEC is 1 µg/mL in the assay on A. fumigatus MYA-4609; 1 µg/mL with A. flavus MX 5948; 1 µg/mL with A. fumigatus MX 5944; 2 µg/mL with A. fumigatus MYA-3626; 1 µg/mL in the assay on A. fumigatus ATCC 13073. Also, the “% Neutrophil Migration” value in assay [1] (conc 0.001 μg/mL) is on record as 3.8%; in [1] (conc 0.01 μg/mL), 88.0%; in [1] (conc 0.1 μg/mL), 15.1%; in assay [1] (conc 1 μg/mL), −9.8%; in [1] (conc 10 μg/mL), −11.2%. Moreover, the MIC against C. krusei ATCC 14243 was determined as 8 µg/mL (≈ 5.05 µM); against C. glabrata ATCC 90030, 4 µg/mL (≈ 2.53 µM); in [2], 32 µg/mL (≈ 20.2 µM); against C. albicans ATCC 90028, 2 µg/mL (≈ 1.26 µM).
On to `CC[C@H](C)C[C@H](C)CCCCCCCCC(=O)N[C@H]1C[C@@H](O)[C@@H](NCCN)NC(=O)[C@@H]2[C@@H](O)CCN2C(=O)[C@H]([C@H](O)CCNC(=O)[C@H](CCCCN)NC(=O)[C@H](Cc2ccccc2)NC(=O)[C@H](CC(C)C)NC(=O)[C@H](CCSC)NC=O)NC(=O)[C@H]([C@H](O)[C@@H](O)c2ccc(O)cc2)NC(=O)[C@@H]2C[C@@H](O)CN2C(=O)[C@H]([C@@H](C)O)NC1=O` [Compound 14], for which the MEC was 0.12 µg/mL in the assay with A. fumigatus MYA-4609; 0.12 µg/mL in the assay on A. flavus MX 5948; 0.12 µg/mL in the assay on A. fumigatus MX 5944; 0.25 µg/mL in the assay on A. fumigatus MYA-3626; 0.25 µg/mL with A. fumigatus ATCC 13073. In addition, the “% Neutrophil Migration” value in [1] (conc 0.001 μg/mL) is reported as 0.9%; in assay [1] (conc 0.01 μg/mL) it was 1.9%; in assay [1] (conc 0.1 μg/mL), 14.8%; in assay [1] (conc 1 μg/mL) it was 21.4%; in assay [1] (conc 10 μg/mL) it was −9.0%. Besides, the MIC against C. krusei ATCC 14243 was found to be 16 µg/mL (≈ 9.75 µM); with C. glabrata ATCC 90030, 16 µg/mL (≈ 9.75 µM); in assay [2], 16 µg/mL (≈ 9.75 µM); in the assay with C. albicans ATCC 90028, 2 µg/mL (≈ 1.22 µM).
As for `CC[C@H](C)C[C@H](C)CCCCCCCCC(=O)N[C@H]1C[C@@H](O)[C@@H](NCCN)NC(=O)[C@@H]2[C@@H](O)CCN2C(=O)[C@H]([C@H](O)CCNC(=O)[C@@H](N)CCCCNC(=O)[C@H](Cc2ccccc2)NC(=O)[C@H](CC(C)C)NC(=O)[C@H](CCSC)NC=O)NC(=O)[C@H]([C@H](O)[C@@H](O)c2ccc(O)cc2)NC(=O)[C@@H]2C[C@@H](O)CN2C(=O)[C@H]([C@@H](C)O)NC1=O` [Compound 15], the MEC in the assay with A. fumigatus MYA-4609, in the assay on A. flavus MX 5948, in the assay with A. fumigatus MX 5944, in the assay with A. fumigatus MYA-3626 and in the assay with A. fumigatus ATCC 13073 was 0.12 µg/mL each time. The “% Neutrophil Migration” value in [1] (conc 0.001 μg/mL) is 9.6%; in assay [1] (conc 0.01 μg/mL), 47.3%; in assay [1] (conc 0.1 μg/mL) it was 13.0%; in [1] (conc 1 μg/mL) it was −6.3%; in [1] (conc 10 μg/mL), −7.0%. Further, the MIC with C. krusei ATCC 14243 worked out at 8 µg/mL (≈ 4.87 µM); in the assay with C. glabrata ATCC 90030, 2 µg/mL (≈ 1.22 µM); in [2] it was 16 µg/mL (≈ 9.75 µM); against C. albicans ATCC 90028, 1 µg/mL (≈ 0.609 µM).
Consider `CC[C@H](C)C[C@H](C)CCCCCCCCC(=O)N[C@H]1C[C@@H](O)[C@@H](NCCN)NC(=O)[C@@H]2[C@@H](O)CCN2C(=O)[C@H]([C@H](O)CCNC(=O)[C@H](CCSC)NC=O)NC(=O)[C@H]([C@H](O)[C@@H](O)c2ccc(O)cc2)NC(=O)[C@@H]2C[C@@H](O)CN2C(=O)[C@H]([C@@H](C)O)NC1=O` [Compound 26], for which the MEC result in the assay with A. fumigatus MYA-4609, in the assay with A. flavus MX 5948, in the assay on A. fumigatus MX 5944, with A. fumigatus MYA-3626 and in the assay with A. fumigatus ATCC 13073 was “≦0.03 μg/mL” each time. Moreover, the “% Neutrophil Migration” value in assay [1] (conc 0.001 μg/mL) is given as −3.4%; in assay [1] (conc 0.01 μg/mL), −3.4%; in assay [1] (conc 0.1 μg/mL) it was −5.1%; in [1] (conc 1 μg/mL), −4.1%; in [1] (conc 10 μg/mL), 15.7%. The MIC with C. krusei ATCC 14243 is 4 µg/mL (≈ 3.19 µM); against C. glabrata ATCC 90030, 1 µg/mL (≈ 0.798 µM); in assay [2], 4 µg/mL (≈ 3.19 µM); with C. albicans ATCC 90028, 0.25 µg/mL (≈ 0.2 µM).
As for `CC[C@H](C)C[C@H](C)CCCCCCCCC(=O)N[C@H]1C[C@@H](O)[C@@H](NCCN)NC(=O)[C@@H]2[C@@H](O)CCN2C(=O)[C@H]([C@H](O)CCNC(=O)[C@H](CC(C)C)NC(=O)[C@H](CCSC)NC=O)NC(=O)[C@H]([C@H](O)[C@@H](O)c2ccc(O)cc2)NC(=O)[C@@H]2C[C@@H](O)CN2C(=O)[C@H]([C@@H](C)O)NC1=O` [Compound 27], the MEC in the assay with A. fumigatus MYA-4609 came to 0.12 µg/mL; with A. flavus MX 5948, 0.06 µg/mL; with A. fumigatus MX 5944, 0.12 µg/mL; in the assay on A. fumigatus MYA-3626, 0.25 µg/mL; in the assay on A. fumigatus ATCC 13073 it was 8 µg/mL. Further, the “% Neutrophil Migration” value was −1.6% in assay [1] (conc 0.001 μg/mL); 3.4% in assay [1] (conc 0.01 μg/mL); −4.2% in [1] (conc 0.1 μg/mL); −1.6% in assay [1] (conc 1 μg/mL); 37.0% in assay [1] (conc 10 μg/mL). For the same compound, the MIC in the assay with C. krusei ATCC 14243 was determined as 8 µg/mL (≈ 5.86 µM); with C. glabrata ATCC 90030 it was 2 µg/mL (≈ 1.46 µM); in [2] it was 16 µg/mL (≈ 11.7 µM); against C. albicans ATCC 90028, 2 µg/mL (≈ 1.46 µM).
